According to article PMC10987619, “Identification and structural characterization of small molecule inhibitors of PINK1” (Scientific Reports, 2024):

Experiments:
[1] = biological target: T1, TcPINK1 (Tribolium castaneum, UniProt D6WMX4); assay: Kinase Glo luminescence assay (ATP hydrolysis) IC50 determination; type: biochemical; details: 1 µM unphosphorylated TcPINK1, 10 µM ATP, 5 min, 30 °C
T1 construct: TcPINK1 (121–570) ampicillin-resistant plasmids were co-expressed in BL21 DE3 E. coli with lambda phosphatase; GST (N, cleaved yes); made in house; host or cells: E. coli BL21 DE3
Experimental: The Kinase Glo Max (cat #V6071) kit assay was used to measure the ATP consumed in the kinase assays. Unphosphorylated 1 µM TcPINK1 was incubated with 10 µM ATP for 5 min at 30 °C in kinase buffer ([…]). […] The kinase buffer consists of 50 mM Tris–HCl pH 7.5, 300 mM NaCl, 1 mM DTT. 100 µL of kinase at 1 µM was added to 100 µL kinase buffer with inhibitor and left in a 30 °C incubator. After the 5-min mark, 200 µL kinase glo was added to stop the reaction. 100 µL of the sample was then pipetted into 3 wells of an opaque white 96-well plate. The luminescence was measured using the Orion II Microplate Luminometer and obtained using the Simplicity 4.2 program. […] The ATP concentration remaining in the reaction was calculated from the linear equation of the ATP standard curve. This number was then divided by the amount of ATP initially present and multiplied by 100 to obtain the percent inhibition. The values were normalized according to the baseline (no inhibitor). The points plotted on a non-linear regression graph in GraphPad Prism 7. The IC50 value and standard deviation were determined in GraphPad.

[2] = tested on: MLK1; details: cited from earlier work
[3] = biological target: T2, human PINK1 (HsPINK1) (Homo sapiens, UniProt Q9BXM7); assay: In organello Ub4 kinase assay with mitochondria isolated from CCCP-treated HeLa cells; type: biochemical; details: 100 µM compound, 0.1 mM ATP, 15 min, 30 °C
T2 construct: host or cells: HeLa (mitochondria isolated after CCCP)
T2 sequence (Q9BXM7 78-581): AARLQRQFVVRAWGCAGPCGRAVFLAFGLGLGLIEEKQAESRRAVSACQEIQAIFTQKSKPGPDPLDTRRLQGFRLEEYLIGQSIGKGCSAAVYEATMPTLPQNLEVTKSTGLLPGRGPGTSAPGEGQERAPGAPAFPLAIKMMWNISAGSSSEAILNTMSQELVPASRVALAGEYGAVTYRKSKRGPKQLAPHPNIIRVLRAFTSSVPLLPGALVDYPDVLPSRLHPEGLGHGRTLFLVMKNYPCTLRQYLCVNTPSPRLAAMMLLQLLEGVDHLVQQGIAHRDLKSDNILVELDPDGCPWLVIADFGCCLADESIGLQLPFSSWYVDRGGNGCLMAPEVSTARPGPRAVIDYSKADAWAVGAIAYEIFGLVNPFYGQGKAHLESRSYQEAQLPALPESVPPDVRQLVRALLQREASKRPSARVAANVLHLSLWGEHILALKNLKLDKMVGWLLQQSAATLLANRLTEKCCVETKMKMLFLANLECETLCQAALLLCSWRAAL
Experimental: Wild type (WT) HeLa cells (ATCC #CCL-2) were cultured in DMEM medium supplemented with 10% fetal bovine serum (FBS) at 37 °C and 5% CO2 in a humidified atmosphere. Cells were then treated with 20 µM CCCP for 3 h to induce the accumulation of PINK1. Cells were then washed twice in ice-cold mitochondrial isolation buffer (MIB: 20 mM HEPES, 70 mM sucrose, 220 mM mannitol, pH 7.4, 1 mM EDTA, Complete protease inhibitors), resuspended in MIB and lysed using nitrogen cavitation for 5 min at 500 psi. Cell debris were removed by centrifugation at 500 g for 5 min, and mitochondria were pelleted by centrifugation at 20,000g for 20 min. 7.5 µg of mitochondria was incubated with 3.75 µg Ub4, 5 mM MgCl2, 0.1 mM ATP and 100 µM of each inhibitor for 15 min at 30 °C. The reaction was quenched with Laemlli buffer and loaded on a gel for immunoblotting as described above. The following antibodies were used: anti-pS65-Ub (E2J6T; rabbit mAb, CST, 62802), anti-PINK1 (D8G3; rabbit IgG mAb; CST, 6946), anti-cytochrome C (136F3, recombinant rabbit mAb, CST, 4280), and HRP-conjugated secondary anti-rabbit (CST, 7074).

[4] = tested on: FGR; details: cited from earlier work
[5] = biological target: T3, endogenous PINK1 in dopaminergic (DA) neurons (Homo sapiens, UniProt Q9BXM7); assay: Assay with dopaminergic neurons (CCCP, immunoblot); type: cell-based; details: 48 h compound then 20 µM CCCP 2 h
T3 construct: host or cells: ReN VM cells differentiated to dopamine neurons
T3 sequence (Q9BXM7 78-581): as above

[6] = biological target: T4, human PINK1 (PINK1-3HA) in HeLa S3 cells (Homo sapiens, UniProt Q9BXM7); assay: HeLa S3 cells IC50 determination (pUb immunoblot after CCCP); type: cell-based; details: HeLa S3 PINK1-3HA, CCCP 4 h
T4 construct: expressed in transfected cells; host or cells: HeLa S3
T4 sequence (Q9BXM7 78-581): as above

[7] = biological target: T5, TcPINK1 (Tribolium castaneum, UniProt D6WMX4); assay: In vitro ubiquitin kinase assay with tetraubiquitin (Ub4), pUb immunoblot; type: biochemical; details: 100 µM compound; for Inhibition of Ub4 phosphorylation (kinase activity of TcPINK1): 100 µM ATP, 5 min, 30 °C
T5 construct: GST (N, cleaved yes); made in house; host or cells: E. coli
T5 sequence (D6WMX4 121-570 limits assumed): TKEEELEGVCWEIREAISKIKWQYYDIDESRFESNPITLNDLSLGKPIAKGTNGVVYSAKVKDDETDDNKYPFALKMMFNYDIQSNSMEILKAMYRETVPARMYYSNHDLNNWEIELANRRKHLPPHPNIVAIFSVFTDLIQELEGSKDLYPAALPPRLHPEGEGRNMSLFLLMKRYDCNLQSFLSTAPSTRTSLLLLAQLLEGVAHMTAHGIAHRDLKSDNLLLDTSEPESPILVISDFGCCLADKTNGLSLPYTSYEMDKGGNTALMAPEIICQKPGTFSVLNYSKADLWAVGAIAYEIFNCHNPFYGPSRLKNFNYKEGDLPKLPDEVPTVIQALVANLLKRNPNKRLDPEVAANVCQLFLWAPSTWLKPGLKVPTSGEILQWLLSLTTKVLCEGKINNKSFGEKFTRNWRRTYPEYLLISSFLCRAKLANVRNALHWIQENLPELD
Experimental: Inhibitors were purchased from different sources via Cedarlane Laboratories (catalog # in parenthesis). […] Olaparib was sent by mistake by Adooq Bioscience under cat #P505-15 and identified by LC–MS/MS (MS^1: m/z 435.183; MS^2: m/z 367.157, 281.072). MTK458 was donated by Mitokinin. The racemic PRT-core was custom synthesised by ChemSpace (CSCS02808122161). Kinase activity assays were performed by mixing 5 nM of purified TcPINK1 with 100 µM ATP, 100 µM small molecules from 10 mM stock in DMSO, 200 µM MgCl2 in kinase buffer (final 1% DMSO). The reactions were left in a 30 °C incubator for 5 min for TcPINK1. The reactions were stopped with the addition of Laemmli buffer (2% SDS, 0.1% bromophenol blue (SigmaAldrich), 10% glycerol, 100 mM DTT) final concentration 1X. The entire reaction was loaded onto a 12.5% Tris-Tricine gel (1 M Tris–HCl pH 8.45, 12.5% acrylamide, 0.1% SDS, 0.1% APS, 0.04% TEMED). Protein from a 12.5% polyacrylamide gel were transferred onto an immuno-blot polyvinylidene fluoride (PVDF) membrane (Bio-rad). The membranes were stained with 1% Ponceau and imaged using the ImageQuant LAS 500. The membrane was washed with distilled water and then blocked in 5% BSA diluted in tris buffered saline with 0.1% Tween (TBS-T) for 1 h. The membrane was briefly rinsed and left to incubate with primary antibody anti-pS65-Ub (E2J6T; rabbit mAb, CST, 62802) at a 1:10,000 dilution in TBS-T for 2 h. The membrane was further rinsed three times for 10 min with TBS-T before incubating it with a 1:2000 dilution of secondary antibody, anti-rabbit horseradish peroxidase (HRP)-conjugated antibodies (CST, 7074), in TBS-T. The membrane was rinsed three times for 10 min in TBS followed by the addition of 1 mL ECL solution (BioRad) to the membrane and visualized on the ImageQuant LAS 500. Densitometry was performed using the Fiji software.

[8] = biological target: T6, TcPINK1 (Tribolium castaneum, UniProt D6WMX4); assay: Autophosphorylation (transphosphorylation) assay by intact LC-MS; type: biochemical; details: 100 µM compound, 5 µM TcPINK1, 1 mM ATP, 30 °C
T6 sequence (D6WMX4 128-570 limits assumed): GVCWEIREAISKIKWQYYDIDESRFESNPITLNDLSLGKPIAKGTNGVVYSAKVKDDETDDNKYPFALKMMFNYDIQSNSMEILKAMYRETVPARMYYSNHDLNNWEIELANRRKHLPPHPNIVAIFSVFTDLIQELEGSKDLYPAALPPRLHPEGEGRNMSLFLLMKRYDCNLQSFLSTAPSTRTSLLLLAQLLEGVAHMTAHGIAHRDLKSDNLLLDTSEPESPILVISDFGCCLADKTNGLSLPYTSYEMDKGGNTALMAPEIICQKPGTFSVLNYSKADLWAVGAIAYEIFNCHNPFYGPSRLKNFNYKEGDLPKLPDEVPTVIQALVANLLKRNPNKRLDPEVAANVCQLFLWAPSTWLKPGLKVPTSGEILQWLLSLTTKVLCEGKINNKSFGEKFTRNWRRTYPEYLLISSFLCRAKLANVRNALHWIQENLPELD
Experimental: Intact protein mass spectrometry was used to monitor transphosphorylation of TcPINK1-D337N by ^15N-TcPINK1-WT, as described previously. ^15N-TcPINK1 at 5 μM was combined with 5 μM TcPINK1-D337N, 100 μM compound of interest, 1 mM ATP, 2 mM MgSO4 in 300 mM NaCl, 50 mM Tris–HCl pH 8, 2 mM DTT with 2% DMSO at 30 °C for transphosphorylation reactions with timepoints of 0 s, 30 s, 60 s, and 120 s. Timepoint reactions were stopped by addition of 0.05% TFA and 2% acetonitrile (final concentrations). Reactions in 20 μL were injected on a Dionex C4 Acclaim 1.0/15 mm column followed by a 10 min 4–50% gradient of ACN in 0.1% formic acid with a flow rate of 40 μL/min. The eluate was analyzed on a Bruker Impact II Q-TOF mass spectrometer equipped with an Apollo II ion funnel ESI source. The multiply charged ions were deconvoluted at 10,000 resolution using the maximum entropy method. The signal intensity of the nonphosphorylated and phosphorylated TcPINK1-D337N peaks were estimated using the DataAnalysis software integration tool and used to calculate the fraction phosphorylated.

[9] = biological target: T7, GST-TcPINK1 (Tribolium castaneum, UniProt D6WMX4); assay: In vitro ubiquitin kinase assay with monoubiquitin, Phos-tag gel; type: biochemical; details: 5 µM GST-TcPINK1, 30 µM ubiquitin, 1 mM ATP, 37 °C
T7 construct: made in house; host or cells: E. coli
T7 sequence (D6WMX4 with tags, fused parts or gaps limits assumed): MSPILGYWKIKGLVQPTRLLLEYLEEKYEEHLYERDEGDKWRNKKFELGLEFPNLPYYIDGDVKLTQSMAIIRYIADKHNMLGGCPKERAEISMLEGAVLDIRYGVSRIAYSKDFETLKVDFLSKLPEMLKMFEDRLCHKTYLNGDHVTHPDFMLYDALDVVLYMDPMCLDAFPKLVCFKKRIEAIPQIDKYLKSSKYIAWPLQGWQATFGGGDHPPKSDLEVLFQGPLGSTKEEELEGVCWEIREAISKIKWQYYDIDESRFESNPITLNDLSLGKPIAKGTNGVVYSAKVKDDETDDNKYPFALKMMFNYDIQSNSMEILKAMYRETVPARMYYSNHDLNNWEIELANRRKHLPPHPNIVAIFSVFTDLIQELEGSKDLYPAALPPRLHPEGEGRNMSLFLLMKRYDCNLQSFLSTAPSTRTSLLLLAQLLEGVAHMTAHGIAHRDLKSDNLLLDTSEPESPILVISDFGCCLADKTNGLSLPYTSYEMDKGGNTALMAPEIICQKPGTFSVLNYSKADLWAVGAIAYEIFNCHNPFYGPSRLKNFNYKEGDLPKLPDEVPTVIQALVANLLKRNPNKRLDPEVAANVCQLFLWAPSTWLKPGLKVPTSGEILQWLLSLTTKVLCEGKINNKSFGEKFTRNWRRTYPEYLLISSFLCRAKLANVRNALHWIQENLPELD
Experimental: (a) Thermal shift assay screen of kinase inhibitors against Tribolium castaneum PINK1 (TcPINK1) with melting temperature increase of 1.5 °C and above. Error bars indicate standard error of ΔTm estimation from melting curves (n = 1). (b) In vitro ubiquitin kinase assays with TcPINK1 and tetraubiquitin (Ub4). Reactions were analyzed by immunoblotting against phospho-ubiquitin (pUb). […] The ponceau staining of the above gel is shown as loading control. (c) In vitro ubiquitin kinase assays with 5 μM GST-TcPINK1 and 30 μM ubiquitin, as well as 1 mM ATP at 37 °C (n = 1). Reactions were analyzed using a phos-tag gel and stained by Coomassie blue. (d) Chemical structures of identified PINK1 inhibitors.

[10] = biological target: FMS-like tyrosine kinase 3 (FLTK3); details: read-out: Inhibition of FLTK3; cited from earlier work
[11] = biological target: T8, TcPINK1 121-570 (TcPINK1-4arom) (Tribolium castaneum, UniProt D6WMX4, F401A/W131A/W142A/Y225A); assay: Isothermal titration calorimetry; type: binding; details: AMP-PNP (syringe) into TcPINK1 (cell), 20 °C, one-site model
T8 construct: GST (N, cleaved yes); made in house; host or cells: E. coli BL21 DE3
T8 sequence (D6WMX4 121-570 W131A/W142A/Y225A/F401A): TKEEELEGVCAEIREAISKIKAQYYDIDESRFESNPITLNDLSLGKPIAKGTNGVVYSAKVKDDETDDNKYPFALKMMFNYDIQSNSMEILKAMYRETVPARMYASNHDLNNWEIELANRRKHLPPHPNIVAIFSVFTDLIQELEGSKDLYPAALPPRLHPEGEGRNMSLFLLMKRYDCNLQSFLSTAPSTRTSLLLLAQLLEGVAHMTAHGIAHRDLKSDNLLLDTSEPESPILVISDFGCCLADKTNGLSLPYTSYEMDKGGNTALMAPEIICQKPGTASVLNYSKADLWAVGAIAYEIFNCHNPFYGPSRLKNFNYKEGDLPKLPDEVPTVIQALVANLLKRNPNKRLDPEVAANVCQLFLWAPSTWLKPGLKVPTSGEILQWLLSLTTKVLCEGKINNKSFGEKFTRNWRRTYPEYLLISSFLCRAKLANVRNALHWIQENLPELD
Experimental: The isothermal titration calorimetry (ITC) assay was performed using the Microcal ITC 200-1 instrument. […] Experiment involved 29 injections of AMP-PNP at 1.5 mM into a sample cell containing 350 μL of 100 µM TcPINK1-4arom at 20 °C. Data was fitted to a one-site model and background was subtracted using the Origin v7 software.

Row | SMILES | IC50 [1] | Inhibition of human PINK1 Ub4 phosphorylation in organello [3] | Inhibition of Ub4 phosphorylation (kinase activity of TcPINK1) [7] | also measured
1 | Nc1nc(Nc2ccc(S(N)(=O)=O)cc2)nn1C(=O)c1c(F)cccc1F [JNJ-7706621] | 27.6 ± 1.1 µM |  |  | 
2 | NC(=O)c1cnc(N[C@@H]2CCCC[C@@H]2N)nc1Nc1cccc(-n2nccn2)c1 [PRT062607] |  | most potent inhibitors of human PINK1 kinase activity | inhibits Ub4 phosphorylation most strongly | IC50 [2]: […]; IC50 [4]: 0.081 µM; Mfn2 ubiquitination [5]: inhibition of Mfn2 ubiquitination; Potential-dependent cleavage of Opa1 to its short isoform [5]: not affected; pUb signal [5]: reduction of the pUb signal in a dose-dependent manner; PINK1 levels (HA blot) [6]: not substantially affected; TcPINK1 autophosphorylation [8]: inhibits TcPINK1 autophosphorylation; Inhibition of monoubiquitin phosphorylation [9]: inhibits TcPINK1
3 | Cc1nc(N)sc1-c1ccnc(Nc2ccc(N3CCOCC3)cc2)n1 [CYC116] | 65.4 ± 1.1 µM |  |  | 
4 | Cc1cccc(Nc2nc(N[C@@H]3CCCC[C@@H]3N)ncc2C(N)=O)c1 [PRT060318] | 2.5 µM | most potent inhibitors of human PINK1 kinase activity | inhibit the kinase activity of TcPINK1 | 
5 | Cn1cc(-c2nc(N[C@@H]3CCCC[C@@H]3N)c(F)c3c2C(=O)NC3)cn1 [TAK-659] | 6.4 ± 1 µM |  | inhibit the kinase activity of TcPINK1 | IC50 [10]: 0.005 µM
6 | NC(=O)c1cnc(N[C@@H]2CCCC[C@@H]2N)nc1Nc1ccccc1 (racemic) [PRT-core] |  |  | inhibit the kinase activity of TcPINK1 | 
7 | FC(F)(F)c1cc2c(N[C@@H]3CCCc4ccccc43)ncnc2[nH]1 [MTK458] |  | does not significantly affect Ub4 phosphorylation |  | 
8 | CNCc1ccc(-c2cc(-c3nc(-c4ccc(S(=O)(=O)C(C)C)cc4)cnc3N)on2)cc1 [VE822] |  | does not significantly impact HsPINK1 |  | TcPINK1 activity compared to control ([7]; Ub4 substrate): 8%
9 | Nc1ncnc2c1ncn2[C@@H]1O[C@H](COP(=O)(O)OP(=O)(O)NP(=O)(O)O)[C@@H](O)[C@H]1O [AMP-PNP] |  |  |  | Kd [11]: 96 µM
